The source made the active and inactive calls.
Key:
[1] = molecular target: Protein phosphatase methylesterase 1 (Homo sapiens, UniProt Q9Y570); experiment: endogenous PME-1 and serine hydrolase inhibition – cell lysate, mouse brain cytosol, FP-rhodamine, gel ABPP, selectivity assay for PME-1 inhibitor project, dose response, panel member PME-1 Assay Panel member description: Inhibition of endogenously expressed PME-1 (AID 2366)
[2] = molecular target: Eukaryotic translation initiation factor 4E (Mus musculus, UniProt P63073); experiment: blockers of eIF4G binding by eIF4E – biochemical, TR-FRET, dose response (AID 855); type: functional;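 also: potency for disrupting eIF4E binding to eIF4GI seen as loss of FRET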
[3] = molecular target: T1, Tyrosine-protein phosphatase non-receptor type 7 (Homo sapiens, UniProt P35236); experiment: SAR analysis of chemical inhibitors of HePTP using a Fluorescent assay - Set 2. [Related pubchem assays (depositor defined):AID1059, AID1077, AID1661, AID2085, AID521]; type: functional
T1 sequence (P35236 whole entry): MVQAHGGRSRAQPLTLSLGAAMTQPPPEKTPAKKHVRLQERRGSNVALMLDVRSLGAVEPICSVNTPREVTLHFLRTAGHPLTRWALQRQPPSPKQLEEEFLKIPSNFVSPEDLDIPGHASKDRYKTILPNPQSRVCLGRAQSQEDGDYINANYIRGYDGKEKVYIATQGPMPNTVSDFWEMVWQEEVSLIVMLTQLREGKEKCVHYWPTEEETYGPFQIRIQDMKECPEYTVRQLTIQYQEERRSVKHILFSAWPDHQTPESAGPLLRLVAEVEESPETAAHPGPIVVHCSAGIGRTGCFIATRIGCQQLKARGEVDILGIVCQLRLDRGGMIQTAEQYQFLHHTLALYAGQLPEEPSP

[4] = molecular target: Dual specificity protein phosphatase 3 (Homo sapiens, UniProt P51452); experiment: SAR VHR1 Fluorescent Assay for In Vitro dose response studies Set 2. [Related pubchem assays (depositor defined):AID1654, AID1661, AID1878]; type: functional
Coagulation factor XII = molecular target: T2, Coagulation factor XII (Homo sapiens, UniProt P00748); type: functional;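 also: activated factor XIIa alpha cleaving a fluorogenic AMC peptide substrate; inhibitor potency from loss of enzyme activity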
T2 sequence (P00748 whole entry): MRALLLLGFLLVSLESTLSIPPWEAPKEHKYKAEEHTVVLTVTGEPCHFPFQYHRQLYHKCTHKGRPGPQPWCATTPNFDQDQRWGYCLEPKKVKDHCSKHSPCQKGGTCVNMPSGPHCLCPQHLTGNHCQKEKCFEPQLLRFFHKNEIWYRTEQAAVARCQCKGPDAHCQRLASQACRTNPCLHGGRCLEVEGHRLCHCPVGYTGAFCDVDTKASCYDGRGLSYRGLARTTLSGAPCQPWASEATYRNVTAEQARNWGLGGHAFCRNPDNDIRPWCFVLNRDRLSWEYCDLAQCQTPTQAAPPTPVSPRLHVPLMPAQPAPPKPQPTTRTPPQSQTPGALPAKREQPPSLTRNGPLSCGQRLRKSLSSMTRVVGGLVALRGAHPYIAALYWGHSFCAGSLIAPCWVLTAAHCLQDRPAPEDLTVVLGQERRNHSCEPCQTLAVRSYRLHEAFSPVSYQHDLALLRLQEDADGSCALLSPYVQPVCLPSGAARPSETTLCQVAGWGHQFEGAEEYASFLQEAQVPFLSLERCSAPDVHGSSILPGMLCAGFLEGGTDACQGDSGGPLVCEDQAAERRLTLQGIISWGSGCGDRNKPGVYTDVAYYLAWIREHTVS

[5] = NIH/3T3 cell viability loss – mouse embryonic fibroblasts, dry powder, set 2, cytotoxicity control, dose response (AID 493247); type: functional, cell-based; details: Fibroblast
Trypanosoma cruzi = experiment: anti-trypanosomal activity in host cells – cell-based, plate reader, dry powder, set 3, dose response (AID 493197); type: functional
[6] = molecular target: Eukaryotic translation initiation factor 4H (Homo sapiens, UniProt Q15056); experiment: inhibitors of translation initiation factor eIF4H – SAR follow-up (AID 435011); type: functional
[7] = molecular target: Polyadenylate-binding protein 1 (Homo sapiens, UniProt P11940); experiment: PABP inhibition in translation initiation, SAR follow-up (AID 435018); type: functional
Beta-galactosidase = Beta-galactosidase (Escherichia coli, UniProt Q8VNN2); experiment: detection-enzyme interference by beta-gal modulators – biochemical, E. coli enzyme, set 3, artefact control for CCR6 antagonist project, dose response (AID 504712); type: functional
[8] = Luminescence Cell-Based Dose Retest to Confirm Inhibitors of Cancer Stem Cells. [Related pubchem assays (depositor defined):AID2717, AID2721]; type: functional; details: Homo sapiens
[9] = microbe, parasite or virus in culture; type: functional; details: Mycobacterium tuberculosis
[10] = molecular target: Potassium voltage-gated channel subfamily KQT member 2 (Rattus norvegicus, UniProt O88943); experiment: potentiation of rat KCNQ2 current – cell-based, retigabine-insensitive compounds, dose response (AID 2654); type: functional
[11] = molecular target: Glutathione-S-transferase (Schistosoma japonicum, UniProt Q26513); experiment: GST-antibody interaction or FRET quenching – biochemical, TR-FRET, artefact control for Vif-APOBEC3G degradation inhibitor project, dose response (AID 1117362); type: functional
[12] = molecular target: Induced myeloid leukemia cell differentiation protein Mcl-1 (Homo sapiens, UniProt Q07820); type: functional
[13] = molecular target: T3, Heat shock 70 kDa protein 1A (Homo sapiens, UniProt P0DMV8); experiment: small molecules displacing fluorescent ligand from Hsp70 – biochemical, fluorescence polarization, primary screen (AID 583)
[14] = molecular target: T1, Tyrosine-protein phosphatase non-receptor type 7; experiment: redox-active compounds inhibiting HePTP phosphatase – biochemical, fluorescence, mechanism study (AID 2068); type: functional
[15] = molecular target: T3, Heat shock 70 kDa protein 1A; experiment: small-molecule inhibition of Hsp70 – biochemical, TR-FRET (AID 786)
Large T antigen = Large T antigen (Simian virus 40, UniProt P03070); type: functional, Betapolyomavirus macacae;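 also: Confirmatory-stage PubChem screen for compounds that inhibit SV40 T antigen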
[16] = Luminescence Cell-Based Dose Response HTS to Identify Activators of Luciferase Translation or Activity in H4 […] Cells. [Related pubchem assays: 1829 (Project Summary), 1814 (Primary HTS)]; type: functional
[17] = Luminescence Cell-Based Dose Confirmation HTS to Identify Activators of 5'UTR Stem-Loop Driven Alpha-Synuclein mRNA Translation in H4 Neuroglioblastoma Cells. [Related pubchem assays: 1829 (Project Summary), 1814 (Primary HTS)]; type: functional
Troponin, cardiac muscle = Troponin, cardiac muscle (Homo sapiens, UniProt P19429+P45379+P63316); experiment: compounds desensitizing RTF to calcium – biochemical, fluorescence, cardiac regulated thin filaments, triplicate IC50, dose response (AID 504742); type: protein-complex assay
H4 = experiment: Luminescence Cell-Based Dose Response HTS to Identify Activators of 5'UTR Stem-Loop Driven Prion Protein mRNA Translation in H4 Neuroglioblastoma Cells. [Related pubchem assays: 1829 (Project Summary), 1814 (Primary HTS)]; type: functional; details: Homo sapiens
HeLa = experiment: viability loss in HeLa cells – cell-based, 24 h, cherry-picked samples, cytotoxicity control, dose response (AID 504726); type: functional; details: Homo sapiens;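 also: potency for cytotoxicity as loss of luminescence signal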
[18] = molecular target: T4, Zinc finger protein mex-5 (Caenorhabditis elegans, UniProt Q9XUB2); experiment: potency of MEX-5 RNA-binding blockers – biochemical, C. elegans, fluorescence polarization, dose response (AID 1960)
T4 sequence (Q9XUB2 whole entry): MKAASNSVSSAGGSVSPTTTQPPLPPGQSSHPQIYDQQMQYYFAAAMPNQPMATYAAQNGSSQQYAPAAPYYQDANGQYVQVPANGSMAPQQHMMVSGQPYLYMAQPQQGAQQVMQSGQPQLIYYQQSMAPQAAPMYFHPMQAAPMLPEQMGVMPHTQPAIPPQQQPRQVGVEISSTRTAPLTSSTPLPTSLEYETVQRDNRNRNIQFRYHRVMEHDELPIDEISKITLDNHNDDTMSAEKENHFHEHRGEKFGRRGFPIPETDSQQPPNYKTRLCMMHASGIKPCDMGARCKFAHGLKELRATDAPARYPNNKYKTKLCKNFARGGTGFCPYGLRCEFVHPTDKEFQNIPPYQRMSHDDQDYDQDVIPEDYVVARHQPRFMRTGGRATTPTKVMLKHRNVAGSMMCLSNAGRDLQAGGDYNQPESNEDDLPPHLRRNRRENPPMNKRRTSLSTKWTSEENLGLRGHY

[19] = molecular target: T5, Long-chain-fatty-acid--AMP ligase FadD28 (Mycobacterium tuberculosis, UniProt P9WQ59); experiment: Fluorescence polarization aasay to screen for inhibitors that compete for the binding of FadD28 to a bisubstrate Measured in Biochemical System Using Plate Reader - 2147-01_Inhibitor_Dose_CherryPick_Activity.; type: functional, Mycobacterium tuberculosis H37Rv
T5 sequence (P9WQ59 whole entry): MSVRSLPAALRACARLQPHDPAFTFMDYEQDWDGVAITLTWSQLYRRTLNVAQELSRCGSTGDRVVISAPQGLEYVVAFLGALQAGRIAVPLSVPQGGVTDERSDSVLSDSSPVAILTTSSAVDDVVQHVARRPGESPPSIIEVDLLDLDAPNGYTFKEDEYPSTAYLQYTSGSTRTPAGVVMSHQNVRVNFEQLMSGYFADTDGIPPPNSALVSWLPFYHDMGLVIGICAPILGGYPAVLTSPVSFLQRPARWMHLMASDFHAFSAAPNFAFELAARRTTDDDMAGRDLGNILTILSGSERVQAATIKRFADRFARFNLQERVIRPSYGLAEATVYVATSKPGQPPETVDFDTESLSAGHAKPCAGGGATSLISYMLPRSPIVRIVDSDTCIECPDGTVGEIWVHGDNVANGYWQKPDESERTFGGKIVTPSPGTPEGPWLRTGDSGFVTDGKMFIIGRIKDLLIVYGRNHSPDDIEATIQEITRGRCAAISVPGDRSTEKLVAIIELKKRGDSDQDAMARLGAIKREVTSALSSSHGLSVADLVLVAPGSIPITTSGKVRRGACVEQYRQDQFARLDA

[20] = molecular target: T6, RNA-binding protein pos-1 (Caenorhabditis elegans, UniProt G5EF15); experiment: disruptors of C. elegans POS-1 RNA interaction – biochemical, fluorescence polarization, dose response (AID 1964);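 also: purified POS-1 fused to maltose binding protein made in E. coli; potency of compounds blocking POS-1 binding to fluorescent RNA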
T6 sequence (G5EF15 whole entry): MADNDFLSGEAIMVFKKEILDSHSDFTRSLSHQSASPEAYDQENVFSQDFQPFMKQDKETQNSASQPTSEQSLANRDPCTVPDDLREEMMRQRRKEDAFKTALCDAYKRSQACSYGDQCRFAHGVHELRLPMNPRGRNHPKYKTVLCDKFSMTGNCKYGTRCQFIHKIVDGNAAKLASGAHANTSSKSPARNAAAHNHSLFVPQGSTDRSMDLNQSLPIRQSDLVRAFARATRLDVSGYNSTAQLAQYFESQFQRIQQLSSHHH

ORF 73 = ORF 73 (Human herpesvirus 8, UniProt O40947); experiment: KSHV LANA DNA-binding disruption – biochemical, fluorescence polarization, cherry-picked samples, dose response (AID 504725); design: species or system Human gammaherpesvirus 8;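 also: fluorescence polarization of a labeled DNA duplex reporting LANA DNA binding; potency is for inhibitors that block LANA binding to the DNA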
Keap1/Nrf2 = Keap1/Nrf2 (Homo sapiens, UniProt Q14145); experiment: disruptors of Keap1 binding to Nrf2 peptide – biochemical, fluorescence polarization, cherry-picked samples, dose response (AID 588683)
Caspase-6 = molecular target: T7, Caspase-6 (Homo sapiens, UniProt P55212); experiment: inhibition of CASP6 peptide cleavage – biochemical, VEID-R110 fluorescence, cherry-pick, dose response (AID 720632)
T7 sequence (P55212 whole entry): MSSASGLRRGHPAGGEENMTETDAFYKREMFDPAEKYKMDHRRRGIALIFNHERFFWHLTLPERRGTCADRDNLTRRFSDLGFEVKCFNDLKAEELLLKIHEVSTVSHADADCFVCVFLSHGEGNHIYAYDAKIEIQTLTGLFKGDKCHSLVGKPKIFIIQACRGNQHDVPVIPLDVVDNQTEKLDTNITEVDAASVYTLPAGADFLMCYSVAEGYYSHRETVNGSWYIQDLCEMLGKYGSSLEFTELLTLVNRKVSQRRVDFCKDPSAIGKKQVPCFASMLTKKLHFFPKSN

[21] = bead-based luminescence quenchers, dual-tagged ARNT – biochemical, AlphaScreen, cherry-pick, artefact control for ARNT-TACC3 interaction inhibitor project, dose response (AID 651705); type: functional;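 also: AlphaScreen bead proximity signal that flags compounds interfering with the detection technology; potency reflects signal decrease which marks the compound as an assay artifact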

T3 sequence (P0DMV8 whole entry): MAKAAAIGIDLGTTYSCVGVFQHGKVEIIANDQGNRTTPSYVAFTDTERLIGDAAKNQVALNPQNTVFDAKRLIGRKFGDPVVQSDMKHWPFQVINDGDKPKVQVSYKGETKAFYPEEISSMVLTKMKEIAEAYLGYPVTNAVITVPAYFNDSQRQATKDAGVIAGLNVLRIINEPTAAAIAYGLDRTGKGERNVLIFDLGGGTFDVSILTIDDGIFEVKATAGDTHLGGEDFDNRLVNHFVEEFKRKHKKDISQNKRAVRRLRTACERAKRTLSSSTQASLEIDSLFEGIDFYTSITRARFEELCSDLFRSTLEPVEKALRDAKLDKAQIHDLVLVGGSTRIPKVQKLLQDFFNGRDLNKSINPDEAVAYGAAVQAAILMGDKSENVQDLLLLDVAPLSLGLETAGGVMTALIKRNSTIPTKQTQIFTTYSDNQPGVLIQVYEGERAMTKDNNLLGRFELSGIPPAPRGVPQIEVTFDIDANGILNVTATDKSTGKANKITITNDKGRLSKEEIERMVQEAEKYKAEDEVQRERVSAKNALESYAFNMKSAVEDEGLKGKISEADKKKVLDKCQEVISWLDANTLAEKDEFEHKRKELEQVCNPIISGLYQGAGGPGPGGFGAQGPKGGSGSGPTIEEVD
Sequence of Eukaryotic translation initiation factor 4E (P63073 whole entry): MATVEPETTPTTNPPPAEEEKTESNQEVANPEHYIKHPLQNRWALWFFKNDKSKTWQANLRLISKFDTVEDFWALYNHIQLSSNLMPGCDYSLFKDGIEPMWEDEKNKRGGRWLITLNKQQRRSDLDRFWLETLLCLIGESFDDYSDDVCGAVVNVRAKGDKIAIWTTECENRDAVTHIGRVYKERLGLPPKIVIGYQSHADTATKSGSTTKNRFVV
Sequence of Large T antigen (P03070 whole entry): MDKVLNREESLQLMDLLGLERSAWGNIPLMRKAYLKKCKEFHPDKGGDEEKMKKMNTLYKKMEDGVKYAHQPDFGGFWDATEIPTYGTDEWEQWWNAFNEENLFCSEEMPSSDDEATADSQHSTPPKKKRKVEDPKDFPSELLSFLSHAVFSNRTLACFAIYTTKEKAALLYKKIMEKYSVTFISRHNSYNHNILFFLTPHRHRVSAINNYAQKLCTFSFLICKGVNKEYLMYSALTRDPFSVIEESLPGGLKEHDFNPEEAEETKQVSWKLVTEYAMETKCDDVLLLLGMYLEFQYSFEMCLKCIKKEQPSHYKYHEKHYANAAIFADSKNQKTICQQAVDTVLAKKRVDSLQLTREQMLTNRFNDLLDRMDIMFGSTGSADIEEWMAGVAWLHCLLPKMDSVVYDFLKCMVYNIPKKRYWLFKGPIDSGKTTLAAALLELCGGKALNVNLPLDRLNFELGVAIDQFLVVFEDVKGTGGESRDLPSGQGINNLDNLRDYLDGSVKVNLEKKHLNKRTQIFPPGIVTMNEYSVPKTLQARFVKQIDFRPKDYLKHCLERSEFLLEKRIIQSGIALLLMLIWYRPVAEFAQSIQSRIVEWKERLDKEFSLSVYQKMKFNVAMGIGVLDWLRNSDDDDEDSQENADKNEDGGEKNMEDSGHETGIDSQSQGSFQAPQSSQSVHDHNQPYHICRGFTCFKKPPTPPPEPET
Sequence of Keap1/Nrf2 (Q16236 whole entry): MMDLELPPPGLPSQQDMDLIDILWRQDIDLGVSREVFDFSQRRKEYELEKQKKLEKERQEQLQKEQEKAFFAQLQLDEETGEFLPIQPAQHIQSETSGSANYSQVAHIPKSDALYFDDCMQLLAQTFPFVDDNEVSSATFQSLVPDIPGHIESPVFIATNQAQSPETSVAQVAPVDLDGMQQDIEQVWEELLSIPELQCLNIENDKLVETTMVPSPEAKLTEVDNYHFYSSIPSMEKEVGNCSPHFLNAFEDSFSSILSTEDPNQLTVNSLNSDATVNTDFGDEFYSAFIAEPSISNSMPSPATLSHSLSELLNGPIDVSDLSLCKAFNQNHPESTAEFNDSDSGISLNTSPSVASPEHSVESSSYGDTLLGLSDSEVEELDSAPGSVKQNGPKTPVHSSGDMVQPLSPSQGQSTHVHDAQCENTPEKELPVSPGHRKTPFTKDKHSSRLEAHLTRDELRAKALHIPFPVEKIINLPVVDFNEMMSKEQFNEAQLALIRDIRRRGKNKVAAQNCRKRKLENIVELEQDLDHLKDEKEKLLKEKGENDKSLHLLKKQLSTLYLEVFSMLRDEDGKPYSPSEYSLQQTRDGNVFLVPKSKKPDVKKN
Sequence of Keap1/Nrf2 (Q14145 whole entry): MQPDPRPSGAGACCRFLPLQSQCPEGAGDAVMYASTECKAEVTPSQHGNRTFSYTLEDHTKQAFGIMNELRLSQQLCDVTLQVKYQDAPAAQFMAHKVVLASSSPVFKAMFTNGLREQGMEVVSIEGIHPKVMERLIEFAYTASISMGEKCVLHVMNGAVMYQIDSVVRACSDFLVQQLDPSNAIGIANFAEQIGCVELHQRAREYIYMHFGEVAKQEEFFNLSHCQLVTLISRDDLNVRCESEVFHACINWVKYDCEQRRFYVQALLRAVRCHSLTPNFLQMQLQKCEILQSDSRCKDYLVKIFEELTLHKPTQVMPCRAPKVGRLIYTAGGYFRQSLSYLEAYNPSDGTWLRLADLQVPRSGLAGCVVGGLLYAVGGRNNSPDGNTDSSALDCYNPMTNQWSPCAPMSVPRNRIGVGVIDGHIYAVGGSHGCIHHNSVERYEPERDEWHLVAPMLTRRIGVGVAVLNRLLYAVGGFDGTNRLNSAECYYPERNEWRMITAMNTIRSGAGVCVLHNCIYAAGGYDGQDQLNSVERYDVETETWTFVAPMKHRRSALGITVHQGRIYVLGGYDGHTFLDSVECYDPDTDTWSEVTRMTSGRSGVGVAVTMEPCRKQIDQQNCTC
Sequence of Dual specificity protein phosphatase 3 (P51452 whole entry): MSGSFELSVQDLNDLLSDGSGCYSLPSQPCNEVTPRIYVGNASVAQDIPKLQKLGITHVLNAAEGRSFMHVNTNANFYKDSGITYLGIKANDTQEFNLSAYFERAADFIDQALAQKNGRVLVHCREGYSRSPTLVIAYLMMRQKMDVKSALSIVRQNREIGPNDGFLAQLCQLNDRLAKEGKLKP
Sequence of Induced myeloid leukemia cell differentiation protein Mcl-1 (Q07820 whole entry): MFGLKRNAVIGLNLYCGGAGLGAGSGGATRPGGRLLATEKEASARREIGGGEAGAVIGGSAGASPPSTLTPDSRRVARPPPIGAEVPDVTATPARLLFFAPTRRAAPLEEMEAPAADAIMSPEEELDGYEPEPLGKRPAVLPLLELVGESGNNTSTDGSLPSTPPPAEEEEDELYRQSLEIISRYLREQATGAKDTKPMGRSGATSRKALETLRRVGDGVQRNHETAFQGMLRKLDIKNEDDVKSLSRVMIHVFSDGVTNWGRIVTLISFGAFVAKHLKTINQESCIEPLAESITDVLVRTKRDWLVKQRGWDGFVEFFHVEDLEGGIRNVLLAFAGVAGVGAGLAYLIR
Sequence of Potassium voltage-gated channel subfamily KQT member 2 (O88943 whole entry): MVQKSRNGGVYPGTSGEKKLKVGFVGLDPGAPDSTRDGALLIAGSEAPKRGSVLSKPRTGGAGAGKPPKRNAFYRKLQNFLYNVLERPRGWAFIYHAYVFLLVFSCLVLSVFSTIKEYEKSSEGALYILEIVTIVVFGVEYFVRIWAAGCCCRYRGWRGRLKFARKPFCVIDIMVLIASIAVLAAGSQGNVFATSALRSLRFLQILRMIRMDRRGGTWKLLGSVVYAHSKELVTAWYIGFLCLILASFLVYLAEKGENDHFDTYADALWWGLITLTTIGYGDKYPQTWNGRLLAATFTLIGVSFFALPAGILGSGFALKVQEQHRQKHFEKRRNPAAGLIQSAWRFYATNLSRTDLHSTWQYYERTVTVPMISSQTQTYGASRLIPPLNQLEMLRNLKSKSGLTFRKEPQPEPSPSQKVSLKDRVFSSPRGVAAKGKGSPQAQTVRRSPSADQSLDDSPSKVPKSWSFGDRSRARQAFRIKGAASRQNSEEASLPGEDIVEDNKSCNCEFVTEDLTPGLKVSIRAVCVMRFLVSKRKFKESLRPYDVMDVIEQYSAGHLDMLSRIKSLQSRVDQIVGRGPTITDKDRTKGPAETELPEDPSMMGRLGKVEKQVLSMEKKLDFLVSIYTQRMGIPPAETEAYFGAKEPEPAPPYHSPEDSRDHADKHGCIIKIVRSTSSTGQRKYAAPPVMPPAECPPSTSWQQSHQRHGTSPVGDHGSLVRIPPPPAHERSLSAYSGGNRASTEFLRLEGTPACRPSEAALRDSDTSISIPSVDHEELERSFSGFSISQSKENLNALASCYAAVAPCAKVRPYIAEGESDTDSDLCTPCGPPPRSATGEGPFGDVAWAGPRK
Sequence of Protein phosphatase methylesterase 1 (Q9Y570 whole entry): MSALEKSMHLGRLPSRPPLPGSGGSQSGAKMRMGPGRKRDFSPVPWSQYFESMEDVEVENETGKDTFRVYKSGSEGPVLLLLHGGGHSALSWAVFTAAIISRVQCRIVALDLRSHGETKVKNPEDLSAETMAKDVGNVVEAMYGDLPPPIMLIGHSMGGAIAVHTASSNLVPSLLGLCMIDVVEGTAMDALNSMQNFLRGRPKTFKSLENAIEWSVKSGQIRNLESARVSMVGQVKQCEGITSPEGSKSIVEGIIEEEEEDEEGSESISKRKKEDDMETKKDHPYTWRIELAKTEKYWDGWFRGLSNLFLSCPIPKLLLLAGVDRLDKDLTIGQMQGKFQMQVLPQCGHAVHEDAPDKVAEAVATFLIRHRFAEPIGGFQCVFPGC

CS(=O)(=O)/C(C#N)=C/c1cccn1S(=O)(=O)c1cccc2ccccc12
IC50 [1]: > 20 µM (inactive)

Nc1c(C(=O)NCc2cccnc2)sc(=S)n1-c1ccccc1
IC50 [2]: > 64 µM (inactive) | IC50 [3]: > 100 µM (inactive) | IC50 [4]: 78 µM (active) | IC50 (Coagulation factor XII): > 50 µM (inactive)

COc1ccc(CCN(C)C(=O)C2CCCN(Cc3ccccc3Cl)C2)cc1OC (stereo not drawn)
AC50 [5]: 46.8 µM (active) | AC50 (Trypanosoma cruzi): 13.7 µM (active)

COc1ccc(C(=O)N/N=C\c2ccc(OCC(=O)Nc3ccc(C)c(C)c3)c(OC)c2)cc1
IC50 [6]: > 100 µM (inactive) | IC50 [7]: > 100 µM (inactive)

CNC(CC(=O)c1ccc([N+](=O)[O-])cc1)C(Cl)(Cl)Cl (stereo not drawn)
IC50 (Beta-galactosidase): > 66.6 µM (inactive) | AC50 [8]: 2.3 µM (active) | CC50 [9]: > 40 µM (active)

O=C(NCc1ccc(Cl)cc1Cl)Nc1ccc(F)nc1
EC50 [10]: 6.31 µM (active)

O=C(Nc1ccc2nc(-c3ccco3)c(-c3ccco3)nc2c1)NC1CC1
IC50 [11]: 75.5 µM (active) | IC50 [12]: 2.92 µM (active) | IC50 [13]: 73.3 µM (active) | IC50 [14]: 1.34 µM (active) | IC50 [2]: 33.1 µM (inactive) | IC50 [15]: > 100 µM (not active) | IC50 (Large T antigen): 39.6 µM (active) | EC50 [16]: 13.2 µM (active) | EC50 [17]: > 120 µM (not active) | IC50 (Troponin, cardiac muscle): 47.5 µM (inactive) | EC50 (H4): > 120 µM (not active)

NS(=O)(=O)c1ccc(N=Nc2cnc(O)c(O)c2)cc1
AC50 (HeLa): 43.8 µM (active) | EC50 [18]: 0.421 µM (active) | AC50 [19]: 22.8 µM (active) | EC50 [20]: 5.41 µM (active) | AC50 (ORF 73): 19.5 µM (active) | AC50 (Keap1/Nrf2): 17.1 µM (active) | IC50 (Large T antigen): 27.5 µM (active) | AC50 (Caspase-6): 3.44 µM (active) | AC50 [21]: 135 µM (active)

From ChEMBL document CHEMBL1201862, “PubChem BioAssay data set” (2004)
